Key:
mouse = settings: cited from earlier work
ALDH = assay: Formation of acetic acid from AcA by ALDH/NADH in the presence of D-GLAC (Reaction 6), gas chromatography; type: biochemical; settings: 3 mmol D-GLAC, 0.3 mmol AcA, 5 units ALDH, NADH, phosphate buffer pH 6.865, stirred 6 hours; GC analysis
[1] = Effect of D-glyceric acid on blood alcohol level in rats after intraperitoneal alcohol; type: in vivo, rat; settings: on average, both fasted and nonfasted rats; versus same alcohol dose without D-GLAC
Experimental: 40 animals were fasted for 12 hours before the experiment, and 40 were fed normally. In the experiment, each rat received intraperitoneally an intoxicating single dose of alcohol (1.2 g/kg, 10% w/v) in physiological saline. […] The blood samples were then analysed by headspace gas chromatography.

[2] = large doses (1-5 g/kg) taken together with the alcohol (Crownover et al. 1986); cited from earlier work
[3] = oral administration during alcohol drinking (Tabakoff et al. 1989); cited from earlier work

For CCO [alcohol, ethyl alcohol], the LD70 (mouse; in vivo) is given as 6500 mg/kg.

For O=C(O)C(O)CO [D-GLAC, D-glyceric acid], the “Formation of acetic acid from AcA” value (ALDH) was “acetic acid had been formed” and the “Lower blood alcohol concentration than the corresponding control group” value [1] was 20%.

For O=C(CO)[C@@H](O)[C@H](O)[C@H](O)CO [fructose], the “Enhancement of alcohol elimination rate” value [2] is given as “up to 20%”.

For CSCC[C@H](N)C(=O)O [methionine], the “Reduction in blood AcA concentrations” value [3] is listed as 20%.

In the case of CC=O [AcA, acetaldehyde], the LD100 (mouse; acute toxicity) is listed as 750 mg/kg.
